Assay results taken from ChEMBL document CHEMBL1201862, “PubChem BioAssay data set” (2004).
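Compound exposure: 48 hours, 5 concentrations, 96-well plates. GI50 marks 50% less growth.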 The source made the active and inactive calls. Rule as the data show it: active = GI50 up to about 1.1 µM and inactive = higher.

Tests used:
Experiment in all cases: NCI-60 cell line screen, 48 h
A498 = system: A498
XF498 = system: XF498
DMS-273 = system: DMS-273
RPMI-8226 = system: RPMI-8226
DLD-1 = system: DLD-1
KM-20L2 = system: KM-20L2
786-0 = system: 786-0
RXF 631 = system: RXF 631

| Structure (SMILES) | GI50 (A498) | GI50 (XF498) | GI50 (DMS-273) | GI50 (RPMI-8226) | GI50 (DLD-1) | GI50 (KM-20L2) | GI50 (786-0) | GI50 (RXF 631) |
| --- | --- | --- | --- | --- | --- | --- | --- | --- |
| CCCNC1=C(C)C(=O)C2=C(C1=O)[C@H](COC(N)=O)[C@]1(OC)[C@@H]3N[C@@H]3CN21 | 2.69 µM (inactive) | 4.78 µM (inactive) | 0.257 µM (active) | 7.18 µM (inactive) | 5 µM (inactive) | 8.75 µM (inactive) |  |  |
| Cc1ccc(C(C)(C)C[P+](C)(c2ccccc2)c2ccccc2)cc1 | 34.4 µM (inactive) | 2.88 µM (inactive) | 4.89 µM (inactive) | 1.41 µM (inactive) | 27.2 µM (inactive) | 6.1 µM (inactive) |  |  |
| COc1nc2ccc(COc3ccc(C(=O)NC(CCC(=O)O)C(=O)O)cc3)cc2nc1OC (centres undefined) |  |  |  | > 10 µM (inactive) |  |  |  |  |
| CCOC(=O)C1(C/C=C\CBr)CCCCCCC1=O (centres undefined) | > 100 µM (inactive) |  |  |  |  |  | > 100 µM (inactive) |  |
| CC(=O)Nc1cccc(/N=N/N(C)C)c1 | > 100 µM (inactive) | > 100 µM (inactive) | > 100 µM (inactive) | > 100 µM (inactive) | > 31.6 µM (inactive) | > 100 µM (inactive) |  |  |
| CN1CCOC(c2ccc(Cl)cc2)O1 (centres undefined) | > 100 µM (inactive) |  |  |  |  |  |  |  |
| CCOP(=O)(C/C=C/Cn1ncc(=O)[nH]c1=O)OCC | > 100 µM (inactive) |  |  | > 100 µM (inactive) |  |  |  |  |
| Cc1ccc(C2C(C(=O)C(C)(C)C)N2S(=O)(=O)c2ccc(C)cc2)cc1 (centres undefined) |  |  |  | 18.9 µM (inactive) |  |  |  |  |
| CO/C(=N\N=C(/C)C(F)(F)F)c1ccncc1 | 15.5 µM (inactive) |  |  | > 100 µM (inactive) |  |  |  |  |
| CCCC(O)C(NC(=O)CCl)C(=O)O (centres undefined) | > 100 µM (inactive) | > 100 µM (inactive) | > 100 µM (inactive) | > 100 µM (inactive) | > 100 µM (inactive) | > 100 µM (inactive) |  |  |
| CSCCC(NC(=O)C(Cc1ccccc1)NC(=O)CNC(=O)CNC(=O)C(N)Cc1ccc(O)cc1)C(=O)O (centres undefined) | > 100 µM (inactive) |  | > 100 µM (inactive) |  |  | > 20.3 µM (inactive) |  |  |
| O=P(Nc1ccccc1)(Oc1ccccc1)N(CCCl)CCCl (centres undefined) | > 100 µM (inactive) |  | > 100 µM (inactive) |  | > 100 µM (inactive) | > 100 µM (inactive) |  | > 100 µM (inactive) |
| N#Cc1c(NC(=S)NC(=O)c2ccccc2)nc2c(c1-c1ccccc1)CCC2 |  |  |  | > 100 µM (inactive) |  |  |  |  |
| Cc1cc(C)c2c(O)cc(-c3ccc(F)cc3)nc2n1 | 27.4 µM (inactive) |  |  | 24.8 µM (inactive) |  |  |  |  |
